# Assay results reported in patent publication US4820824A, “Mitomaycin compounds” (Kyowa Hakko Kogyo Kabushiki Kaisha, priority 1986, dated 1989).
# Like-named read-outs stand apart in the source and are kept apart here.
# Columns and labels:
# [1] = test system: Streptococcus faecalis ATCC 10541; test: Antibacterial activity, agar dilution method (MIC), Streptococcus faecalis; assay type: cell-based; details: Enterococcus faecalis, ATCC10541, pH 7.0, read-out: Minimum inhibitory concentration (MIC), SF
# Description: (§1) Antibacterial activities of Compounds (I) against various microorganisms are shown in the following Table 5, in which the minimum inhibitory concentration MIC (μg/ml) was measured by the agar dilution method at a pH of 7.0.
# (§2) In this table, the following abbreviations are used: SF-Streptococcus faecalis ATCC 10541; SA-Staphylococcus aureus ATCC6538P; BS-Bacillus subtilis 10707; PV-Proteus vulgaris ATCC6897; KP-Klebsiella pneumoniae ATCC10031.
# [2] = test system: Klebsiella pneumoniae ATCC10031; test: Antibacterial activity, agar dilution method (MIC), Klebsiella pneumoniae; assay type: cell-based; details: pH 7.0, read-out: Minimum inhibitory concentration (MIC), KP
# Description: as §1, §2
# [3] = test system: Staphylococcus aureus ATCC6538P; test: Antibacterial activity, agar dilution method (MIC), Staphylococcus aureus; assay type: cell-based; details: pH 7.0, read-out: Minimum inhibitory concentration (MIC), SA
# Description: as §1, §2
# Bacillus subtilis 10707 = test: Antibacterial activity, agar dilution method (MIC), Bacillus subtilis; assay type: cell-based; details: pH 7.0, read-out: Minimum inhibitory concentration (MIC), BS
# Description: as §1, §2
# [4] = test system: Proteus vulgaris ATCC6897; test: Antibacterial activity, agar dilution method (MIC), Proteus vulgaris; assay type: cell-based; details: pH 7.0, read-out: Minimum inhibitory concentration (MIC), PV
# Description: as §1, §2
# peripheral leucocytes = test: Effect upon peripheral leucocytes (bone marrow toxicity); assay type: in vivo, male mice (ddy strain); details: minimum dose decreasing peripheral leucocytes to 4000/mm^3; tumour-bearing ddy mice, intraperitoneal, blood 4 days later
# Description: (§3) Certain Compounds (I) and Sarcoma 180 solid tumour were used to determine, on each occasion, antitumour activity (ED50), acutee toxicity (LD50) and effect upon peripherical leucocytes (WBC4000), as shown Table 6.
# of peripheral leucocytes to 4000/mm^3.
# Sarcoma 180 solid tumour cells (5×10^6) were subcutaneously implanted under the skin of the right armpit of each mouse (body weight 20±2 g) of a group consisting of 5 male mice (ddy strain). 24 hours after this, a test compound was intraperitoneally administered to each animal. 4 days later, blood (0.02 ml) was collected from the suborbital plexus vein of each tumour-carrying animal. The collected sample of blood was dispersed in 9.98 ml of Cellkit Seven solution. One drop of saponin solution was added to the sample to dissolve erythrocytes and then a microcell counter was used to measure the number of leucocytes. On graph paper, the number of leucocytes was plotted on the ordinate using an arithmetic scale, and the dosage was plotted on the abscissa using a logarithmic scale to show the relationship of the dosage to the number of peripherical leucocytes, from which the value of WBC4000 viz. a value capable of giving 4000 peripheral leucocytes per mm^3 (about half of the corresponding value in normal mice) was obtained.
# Acute toxicity = details: mouse, in vivo, ip; ddy mice, single abdominal administration, 14 days observation, Behrens-Korber's method
# Excerpt: as §3
# The test compound was abdominally administered once to ddy mice, each group consisting of 5 animals.
# Sarcoma 180 solid tumour = test: Antitumour activity against Sarcoma 180 solid tumour; assay type: in vivo, ddy male mouse; details: for ED50: Mus musculus, Sarcoma-180, iv, 168 h; for C.I. (LD50/ED50): chemotherapeutic index LD50/ED50, Sarcoma 180, ddy mice
# Excerpt: as §3
# 5×10^6 cells of Sarcoma 180 solid tumour were abdominally implanted into a ddy mouce. 7 days after this, the cells were collected from the ascites fluid. The cells were washed once with physiological saline under sterile conditions and suspended in physiological saline to obtain a cell suspension containing 5×10^7 cells/ml, of which 0.1 ml was implanted into a ddy male mouce (body weight 20±2 g) under the skin of the right armpit. The test compound was dissolved in physiological saline or the same solution containing Tween 80. 24 hours after implantation of the tumour cells, 0.1-0.2 ml of the solution containing the test compound was administered to the tail vein of each animal in the test group consisting of 5 animals. 7 days after the implantation, the major axis (a) and minor axis (b) of the tumour were measured to calculate the volume of the tumour as ("a"×"b^2 ")/2. The antitumour effect was indicated by T/C which is the ratio of the tumour volume in the test animals to the corresponding volume of the control (untreated) animals.
# ED50 denotes the dosage capable of decreasing the volume of Sarcoma 180 solid tumour to 50% of the corresponding volume of the control animals. T/C ratios and the dose were respectively plotted on the ordinate using an arithmetic scale and on the abscissa using a logarithmic scale, the relationship between the dosage and the T/C ratio being converted to a straight line by the least squares method. From the straight tropic line thus-obtained, the dosage corresponding to a T/C=0.5 viz. ED50 was determined.
# Water-solubility = assay type: physicochemical
# [5] = dose giving T/C=0.5 tumour volume, single tail vein administration 24 hours after implantation, measured 7 days after implantation, read-out: ED50
Structure (SMILES),MIC [1] [µg/mL],MIC [2] [µg/mL],MIC [3] [µg/mL],MIC (Bacillus subtilis 10707) [µg/mL],MIC [4] [µg/mL],WBC4000 (peripheral leucocytes) [mg/kg],LD50 at 336 h (Acute toxicity) [mg/kg],ED50 (Sarcoma 180 solid tumour; [5]) [mg/kg],C.I. (LD50/ED50) (Sarcoma 180 solid tumour),solubility (Water-solubility) [mg/mL],ED50 (Sarcoma 180 solid tumour) [mg/kg]
"CO[C@@]12[C@H](COC(N)=O)C3=C(C(=O)C(C)=C(N=S(c4ccccc4)c4ccccc4)C3=O)N1C[C@@H]1N[C@@H]12 [Compound 1, 7-demethoxy-7-diphenylsulfiliminomitomycin A]",0.02,0.16,0.01,< 0.005,0.63,–,–,–,–,–,–
CC1=C(N=S(c2ccccc2)c2ccccc2)C(=O)C2=C(C1=O)N1C[C@H]3[C@H](N3C)[C@]1(O)[C@H]2COC(N)=O (stereo partly shown) [Compound 2],0.78,25,0.78,0.2,–,> 200,> 200,89.1,> 2.2,–,–
C=C1C2=C(C(=O)C(C)=C(N=S(c3ccccc3)c3ccccc3)C2=O)N2C[C@H]3[C@H](N3C)[C@]12O (stereo partly shown) [Compound 3],–,–,–,0.63,–,> 200,> 200,132,> 1.5,–,–
"CO[C@@]12[C@H](COC(N)=O)C3=C(C(=O)C(C)=C(N=S(C)c4ccccc4)C3=O)N1C[C@@H]1N[C@@H]12 (stereo partly shown) [Compound 5, (E)-7-demethoxy-7-methylphenylsulfilimino mitomycin A]",–,–,–,–,–,4.1,15,2.7,5.6,–,–
CCS(CC)=NC1=C(C)C(=O)C2=C(C1=O)[C@@H](COC(N)=O)[C@@]1(OC)[C@H]3N[C@H]3CN21 [Compound 6],0.078,0.039,0.039,0.02,0.039,5.6,9.4,2.5,3.8,> 40,–
CCS(CC)=NC1=C(C)C(=O)C2=C(C1=O)[C@H](COC(N)=O)[C@@]1(O)[C@@H]3[C@H](CN21)N3C (stereo partly shown) [Compound 7],20,10,10,5,20,–,–,–,–,–,–
"CO[C@@]12[C@H](COC(N)=O)C3=C(C(=O)C(C)=C(N=P(c4ccccc4)(c4ccccc4)c4ccccc4)C3=O)N1C[C@@H]1N[C@@H]12 [Compound 9, 7-demethoxy-7-triphenylphosphiniminomitomycin A]",13,13,13,3.1,25,> 100,> 100,–,≥ 1.0,–,100
